From patent publication US20090194124A1, “Hair Shaping Kit and Process Comprising at Least One Non-Hydroxide Imine” (priority 2003, published 2009)

Tests used:
[1] = pH of the simplified permanent-waving composition; format: physicochemical
Experimental: […]. The pH of the composition was 13.6. This composition was applied to Caucasian hair, wound beforehand onto curlers, for 15 minutes at a temperature of 30° C.
[…]. The pH of the composition was 13.5. This composition was applied to Caucasian hair, wound beforehand onto curlers, for 25 minutes at a temperature of 30° C.
A simplified permanent-waving composition was prepared, containing, as a permanent-waving active agent, 1,3,4,6,7,8-hexahydro-2H-pyrimido[1,2-a]pyrimidine (Registry Number [5807-14-7]) at a concentration of 0.7 M in water. The pH of the composition was 13.5. This composition was applied to Caucasian hair, wound beforehand onto curlers, for 15 minutes at a temperature of 30° C.
A simplified permanent-waving composition was prepared, containing, as a permanent-waving active agent, 1,3,4,6,7,8-hexahydro-2H-pyrimido[1,2-a]pyrimidine (Registry Number [5807-14-7]) at a concentration of 0.5M in water. The pH of the composition was 13.4. This composition was applied to Caucasian hair, wound beforehand onto curlers, for 20 minutes at a temperature of 30° C.

[2] = permanent-waving of hair wound onto curlers with a simplified aqueous composition; settings: Caucasian hair wound onto curlers
Experimental: In the permanent shaping processes described herein, the composition is applied to wet or dry hair, wound beforehand onto rollers (curlers) having a diameter of from 2 mm to 30 mm. It is also possible to apply the composition as the hair is wound up. […] This composition was applied to Caucasian hair, wound beforehand onto curlers, for 15 minutes at a temperature of 30° C. […] This composition was applied to Caucasian hair, wound beforehand onto curlers, for 25 minutes at a temperature of 30° C. […] This composition was applied to Caucasian hair, wound beforehand onto curlers, for 15 minutes at a temperature of 30° C. […] This composition was applied to Caucasian hair, wound beforehand onto curlers, for 20 minutes at a temperature of 30° C.

Structure (SMILES)	pH of the composition ([1]; 0.5M in water)	pH of the composition ([1]; 0.7 M in water)	result on the hair after permanent-waving (curl and feel) ([2]; 0.5M in water, applied 20 minutes at 30° C.)	result on the hair after permanent-waving (curl and feel) ([2]; 0.7 M in water, applied 15 minutes at 30° C.)
CN(C)C(=N)NC(=N)N [1,1-dimethylbiguanide]	13.5	13.6	–	–
C1CN=C2NCCCN2C1 [1,3,4,6,7,8-hexahydro-2H-pyrimido[1,2-a]pyrimidine]	13.4	13.5	beautifully curly and felt soft	beautifully curly and felt soft
